Laboratory results as given in ChEMBL document CHEMBL6103559, “Marine actinomycetes-derived angucyclines and angucyclinones with biosynthesis and activity--past 10 years (2014-2023)” (Eur J Med Chem, 2025).
In brackets after ≈: the same amount, converted by molar mass.

Tests used:
[1] = test system: Escherichia coli; test: Antibacterial activity against multi-drug resistant Escherichia coli CCARM 1009 assessed as inhibition of bacterial growth incubated for 18 hrs by microplate reader analysis; format: functional
[2] = test system: Salmonella typhimurium; test: Antibacterial activity against multi-drug resistant Salmonella Typhimurium CCARM 8250 assessed as inhibition of bacterial growth incubated for 18 hrs by microplate reader analysis; format: functional, Salmonella enterica subsp. enterica serovar Typhimurium; settings: Salmonella enterica
[3] = test system: Staphylococcus aureus; test: Antibacterial activity against multi-drug resistant Staphylococcus aureus CCARM 3090 assessed as inhibition of bacterial growth incubated for 18 hrs by microplate reader analysis; format: functional
[4] = test system: Enterococcus faecalis; test: Antibacterial activity against multi-drug resistant Enterococcus faecalis CCARM 5172 assessed as inhibition of bacterial growth incubated for 18 hrs by microplate reader analysis; format: functional
[5] = test system: Enterococcus faecium; test: Antibacterial activity against multi-drug resistant Enterococcus faecium CCARM 5203 assessed as inhibition of bacterial growth incubated for 18 hrs by microplate reader analysis; format: functional
[6] = test system: SK-HEP1; test: Cytotoxicity against human SK-HEP1 cells by SRB assay; format: functional, cell-based
[7] = test system: HCT-116; test: Cytotoxicity against human HCT-116 cells by SRB assay; format: functional, cell-based
[8] = test system: MDA-MB-231; test: Cytotoxicity against human MDA-MB-231 cells by SRB assay; format: functional, cell-based
[9] = test system: SNU-638; test: Cytotoxicity against human SNU-638 cells by SRB assay; format: functional, cell-based
[10] = test system: A549; test: Cytotoxicity against human A549 cells by SRB assay; format: functional, cell-based
[11] = test system: Staphylococcus aureus; test: Antibacterial activity against methicillin-resistant Staphylococcus aureus assessed as reduction in microbial growth by CLSI based broth microdilution method; format: functional
[12] = test system: MDA-MB-231; test: Cytotoxicity against human MDA-MB-231 cells assessed as reduction in cell growth by MTT assay; format: functional, cell-based
[13] = test system: H69AR; test: Cytotoxicity against human NCI-H69AR cells assessed as reduction in cell growth by MTT assay; format: functional, cell-based
[14] = test system: ASPC1; test: Cytotoxicity against human ASPC1 cells assessed as reduction in cell growth by MTT assay; format: functional, cell-based
[15] = test system: NCI-H69; test: Cytotoxicity against human NCI-H69 cells assessed as reduction in cell growth by MTT assay; format: functional, cell-based
[16] = test system: K562; test: Cytotoxicity against human K562 cells assessed as reduction in cell growth by MTT assay; format: functional, cell-based
[17] = test system: HCT-15; test: Growth inhibition of human HCT-15 cells after 48 hrs by sulforhodamine B assay; format: functional
[18] = test system: ACHN; test: Growth inhibition of human ACHN cells after 48 hrs by sulforhodamine B assay; format: functional
[19] = test system: PC-3; test: Growth inhibition of human PC-3 cells after 48 hrs by sulforhodamine B assay; format: functional
[20] = test system: NCI-H23; test: Growth inhibition of human NCI-H23 cells after 48 hrs by sulforhodamine B assay; format: functional
[21] = test system: MDA-MB-231; test: Growth inhibition of human MDA-MB-231 cells after 48 hrs by sulforhodamine B assay; format: functional
[22] = test system: NUGC-3; test: Growth inhibition of human NUGC-3 cells after 48 hrs by sulforhodamine B assay; format: functional
[23] = test system: PC-3; test: Cytotoxicity against human PC-3 cells; format: functional, cell-based
[24] = test system: Jurkat; test: Cytotoxicity against human Jurkat T cells; format: functional, cell-based
[25] = test system: MCF-10A; test: Cytotoxicity against human MCF-10A cells assessed as reduction in cell viability incubated for 48 hrs by MTT assay; format: functional, cell-based
[26] = test system: NCI-H460; test: Cytotoxicity against human NCI-H460 cells assessed as reduction in cell viability incubated for 48 hrs by MTT assay; format: functional, cell-based; settings: NCI-H460, 48 h
[27] = test system: MDA-MB-231; test: Cytotoxicity against human MDA-MB-231 cells assessed as reduction in cell viability incubated for 48 hrs by MTT assay; format: functional, cell-based; settings: MDA-MB-231, 48 h
[28] = test system: MDA-MB-435; test: Cytotoxicity against human MDA-MB-435 cells assessed as reduction in cell viability incubated for 48 hrs by MTT assay; format: functional, cell-based; settings: MDA-MB-435, 48 h
[29] = test system: HCT-116; test: Cytotoxicity against human HCT-116 cells assessed as reduction in cell viability incubated for 48 hrs by MTT assay; format: functional, cell-based; settings: HCT-116, 48 h
[30] = test system: HepG2; test: Cytotoxicity against human HepG2 cells assessed as reduction in cell viability incubated for 48 hrs by MTT assay; format: functional, cell-based; settings: HepG2, 48 h
[31] = test system: Staphylococcus aureus; test: Antibacterial activity against Staphylococcus aureus ATCC 43300 assessed as reduction in bacterial growth measured for 12 hrs by broth micro-dilution method; format: functional
[32] = test system: Candida albicans; test: Antifungal activity against Candida albicans assessed as reduction in […] growth measured for 12 hrs by broth micro-dilution method; format: functional
[33] = test system: SF-268; test: Cytotoxicity against human SF-268 cells assessed as reduction in cell growth incubated for 72 hrs by SRB assay; format: functional, cell-based; settings: SF-268, 72 h
[34] = test system: HepG2; test: Cytotoxicity against human HepG2 cells assessed as reduction in cell growth incubated for 72 hrs by SRB assay; format: functional, cell-based; settings: HepG2, 72 h
[35] = test system: A549; test: Cytotoxicity against human A549 cells assessed as reduction in cell growth incubated for 72 hrs by SRB assay; format: functional, cell-based; settings: A549, 72 h
[36] = test system: MCF7; test: Cytotoxicity against human MCF7 cells assessed as reduction in cell growth incubated for 72 hrs by SRB assay; format: functional, cell-based; settings: MCF7, 72 h
[37] = test system: PC-3; test: Cytotoxicity against human PC-3 cells assessed as reduction in cell growth by SRB assay; format: functional, cell-based
[38] = test system: A2780; test: Cytotoxicity against human A2780 cells assessed as reduction in cell growth by SRB assay; format: functional, cell-based
[39] = test system: Bacillus subtilis; test: Antibacterial activity against Bacillus subtilis CMCC(B) 63501 assessed as reduction in microbial growth measured for 18 hrs; format: functional
[40] = test system: Pseudomonas aeruginosa; test: Antimicrobial activity against Pseudomonas aeruginosa CMCC(B) 10104 assessed as reduction in microbial growth measured for 18 hrs; format: functional
[41] = test system: Escherichia coli; test: Antibacterial activity against Escherichia coli CMCC(B) 44102 assessed as reduction in microbial growth measured for 18 hrs; format: functional
[42] = test system: Klebsiella pneumoniae; test: Antibacterial activity against Klebsiella pneumoniae CMCC(B) 46117 assessed as reduction in microbial growth measured for 18 hrs; format: functional
[43] = test system: Staphylococcus aureus; test: Antimicrobial activity against methicillin-resistant Staphylococcus aureus assessed as reduction in microbial growth measured for 18 hrs; format: functional
[44] = test system: BT-549; test: Cytotoxicity against human BT-549 cells; format: functional, cell-based
[45] = test system: MDA-MB-468; test: Cytotoxicity against human MDA-MB-468 cells; format: functional, cell-based
[46] = test system: MDA-MB-231; test: Cytotoxicity against human MDA-MB-231 cells; format: functional, cell-based

For `C[C@@H]1O[C@@H](O[C@H]2[C@H](O)C[C@H](c3ccc4c(c3O)C(=O)c3ccc(C[C@@](C)(O)CC(=O)O)c(O)c3C4=O)O[C@@H]2C)CC[C@@H]1O`, the MIC [1] was 3.12 µg/mL (≈ 5.19 µM), the MIC [2] was 3.12 µg/mL (≈ 5.19 µM) and the MIC [3] was 3.12 µg/mL (≈ 5.19 µM). It also gave an MIC [4] of 3.12 µg/mL (≈ 5.19 µM) and an MIC [5] of 3.12 µg/mL (≈ 5.19 µM).
`COc1cccc2c1C(=O)O[C@H]2c1c(O)ccc2c1C(=O)C[C@@H](C)[C@@H]2O` was tested, and the IC50 [6] was 6700 nM, the IC50 [7] was 6700 nM and the IC50 [8] was 6700 nM. The IC50 [9] was 6700 nM and the IC50 [10] was 6700 nM.
In the case of `CC(C)C1(O)CC(=O)c2c(cc(O)c3c2C(=O)c2cccc(O)c2C3=O)C1=O` (stereo not given), the MIC [11] is reported as 3.12 µg/mL.
Work on `CC(C)C1(O)CC(=O)c2c(cc(O)c3c2C(=O)c2cccc(O)c2C3=O)C1` (stereo not given) yielded an MIC [11] of 3.12 µg/mL.
Compound `CC1=CC(=O)[C@]2(O)[C@](O)(CC[C@@]34O[C@@]23C(=O)c2cccc(O)c2C4=O)C1` has an IC50 [12] of 320 nM, an IC50 [13] of 320 nM and an IC50 [14] of 320 nM. It also gave an IC50 [15] of 320 nM and an IC50 [16] of 320 nM.
`CSC1=CC2=C(C(=O)c3ccc([C@H]4C[C@@H](O[C@H]5CC[C@H](O[C@H]6C[C@@H](O)[C@H](O)[C@@H](C)O6)[C@H](C)O5)[C@H](O)CO4)c(O)c3C2=O)[C@@]2(O)C(=O)C[C@](C)(O)C[C@@]12O` showed a GI50 [17] of 10 nM, a GI50 [18] of 10 nM and a GI50 [19] of 10 nM. It also gave a GI50 [20] of 10 nM, a GI50 [21] of 10 nM and a GI50 [22] of 10 nM.
For `C[C@@]12CC(=O)[C@@]3(O)[C@](O)(CC[C@H]4C(=O)c5c(O)cccc5[C@@H](O)[C@@]43O1)C2`, the IC50 [23] was 1380 nM.
`Cc1cc(O)c2cc3c(c(O)c2c1)C(=O)c1ccc([C@H]2C[C@@H](O)[C@H](O[C@H]4CC[C@H](OC5=CC(=O)[C@@H](C)OC5)[C@H](C)O4)[C@@H](C)O2)c(O)c1C3=O` was tested, and the IC50 [24] was 3000 nM.
Compound `C[C@@H]1O[C@@H](O[C@H]2CC[C@H](O[C@H]3[C@H](O)C[C@H](c4ccc5c(c4O)C(=O)c4ccc6c(c4C5=O)C(=O)C[C@](C)(O)C6)O[C@@H]3C)O[C@H]2C)CCC1=O` has an IC50 [25] of 2400 nM, an IC50 [26] of 2400 nM and an IC50 [27] of 2400 nM. For the same compound, the IC50 [28] was 2400 nM, the IC50 [29] was 2400 nM and the IC50 [30] was 2400 nM.
For `CC(=O)C[C@H](SCc1cc2cc(C)cc(O)c2c2c1C(=O)c1c(O)cccc1C2=O)C(=O)O`, the MIC [31] was 20 µM (≈ 9.29 µg/mL) and the MIC [32] was 20 µM (≈ 9.29 µg/mL).
`Cc1cc(O)c2c(c1)C1c3c-2c(O)c2cccc(O)c2c3OC(=O)C1c1c[nH]c2ccccc12` (stereo not given) gave an IC50 [33] of 7000 nM, an IC50 [34] of 7000 nM and an IC50 [35] of 7000 nM. It also gave an IC50 [36] of 7000 nM.
Work on `CC(=O)N[C@@H](CSc1cc2cc(C)cc(O)c2c2c1C(=O)c1c(O)cccc1C2=O)C(=O)O` yielded an IC50 [37] of 19400 nM, an MIC [31] of 20 µM (≈ 9.31 µg/mL) and an MIC [32] of 20 µM (≈ 9.31 µg/mL). For the same compound, the IC50 [38] was 10200 nM.
With `CO[C@@H]1C[C@@H](O[C@H]2C=C(C)[C@@H](O)[C@]3(O)[C@@H](OC(=O)O)[C@@H](O)C4=C(C(=O)c5ccc([C@H]6C[C@@H](O[C@H]7C[C@](C)(O)[C@H](O[C@H]8CC[C@H](OC(N)=O)[C@@H](C)O8)[C@@H](C)O7)[C@@H](O)[C@@H](C)O6)c(O)c5C4=O)[C@]23O)O[C@@H](C)[C@H]1O` the MIC [39] was 8 µg/mL, the MIC [40] was 16 µg/mL and the MIC [41] was 16 µg/mL. The MIC [42] was 16 µg/mL and the MIC [43] was 16 µg/mL.
`CO[C@@H]1C[C@@H](O[C@H]2C=C(C)C[C@]3(O)[C@@H](OC(=O)O)[C@@H](O)C4=C(C(=O)c5ccc([C@H]6C[C@@H](O[C@H]7C[C@](C)(O)[C@H](O[C@H]8CC[C@H](OC(N)=O)[C@@H](C)O8)[C@@H](C)O7)[C@@H](O)[C@@H](C)O6)c(O)c5C4=O)[C@]23O)O[C@@H](C)[C@H]1O` was tested, and the MIC [39] was 8 µg/mL, the MIC [40] was 16 µg/mL and the MIC [41] was 16 µg/mL. It also gave an MIC [42] of 16 µg/mL and an MIC [43] of 16 µg/mL.
For `CN[C@@H]1C[C@H](c2c(O)c3c(c4c(O)cc(C)cc24)C(=O)c2cccc(O)c2C3=O)O[C@H](C)[C@H]1O`, the IC50 [44] was 600 nM, the IC50 [45] was 600 nM and the IC50 [46] was 600 nM.
For `CC(C)c1cc(=O)c2c(cc(O)c3c(=O)c4c(O)cccc4c(=O)c32)c1=O`, the MIC [11] was 3.12 µg/mL.
